# Assay results taken from patent publication US7521418B2, “Use of a polyene macrolide antifungal agent in combination with a glycopeptide antibacterial agent” (Theravance, Inc., priority 2003, dated 2009).
# Tested on: R. microsporus ATCC 14050
# Experiment: Checkerboard MIC assay, FICI
# Type: cell-based, Rhizopus microsporus
# Conditions: combination with Compound 1
# Description: The following assay was used to determine the minimum inhibitory concentration (MIC) and fractional inhibitory concentration index (FICI) for combinations of an antifungal agent and a glycopeptide antibacterial agent. This assay and methods for calculating FICI are well known in the art. See, for example, Eliopoulos, E. G. and R. Moellering, Jr. “Antimicrobial Combinations” in Antibiotics in Laboratory Medicine, edited by V. Lorian, 4th Ed., Williams & Wilkins, Baltimore, MD, pp. 330-396 (1996); […] et al., Antimicrobial Agents and Chemotherapy 47(4):1416-1418 (2003); or […] et al., Antimicrobial Agents and Chemotherapy 46(10):3323-3326 (2002). […] The MIC of the glycopeptide antibacterial agent determined from this experiment was used in FIC calculations. […]
row,SMILES,FICI
1,C[C@@H]1[C@H](O)[C@@H](C)/C=C/C=C/C=C/C=C/C=C/C=C/C=C/[C@H](O[C@@H]2O[C@H](C)[C@@H](O)[C@H](N)[C@@H]2O)C[C@@H]2O[C@](O)(C[C@@H](O)C[C@@H](O)[C@H](O)CC[C@@H](O)C[C@@H](O)CC(=O)O[C@H]1C)C[C@H](O)[C@H]2C(=O)O [Amphotericin B],0.27
2,C[C@@H]1[C@H](O)[C@@H](C)/C=C/C=C/CC/C=C/C=C/C=C/C=C/C(O[C@H]2O[C@H](C)[C@@H](O)[C@H](N)[C@@H]2O)CC2O[C@](O)(CC(O)C(O)CCC(O)CC(O)CC(O)CC(=O)O[C@H]1C)CC(O)C2C(=O)O (some centres unmarked) [Nystatin],0.51
